One data set relates to serum carboxypeptidase. In words: Sensitivity to serum carboxypeptidase. It is filed as biochemical.
Data set [1] concerns the target T1, angiotensin converting enzyme (ACE) (Homo sapiens, UniProt P12821).
T1 construct: Serum was prepared from fresh whole blood by standard techniques; from tissue; host or cells: serum (unfractionated)
Briefly: ACE assay: hydrolysis of ^3H-HipGlyGly by human serum, Lineweaver-Burke Km. Type of data set: biochemical. The protocol: The following sample illustrates the preferred assay method, the sensitivity of the assay and the Km for ^3 H-HipGlyGly. The reaction buffer contains 0.05 M Hepes, 0.1 M sodium chloride and 0.6 M sodium sulphate at pH 8.0. (Pepes is N-2-Hydroxyethyl piperazine N'-2-ethane sulfonic acid.) The substrate, ^3 H-HipGlyGly was dissolved in reaction buffer at a concentration of 16 mM and a specific radioactivity of about 0.15 millicuries/millimole. Serum was prepared from fresh whole blood by standard techniques. […] Hemolyzed samples were not used in the assay. Serum samples could be stored at least for one week at 2° C. to 8° C. or for at least 8 weeks frozen, prior to assaying. For the assay, 50 μl. of serum was diluted with 200 μl. of reaction buffer. All the reactions were carried out in glass tubes due to the potentially destructive action of ethyl acetate on plastic.
The reaction mixture was composed of 50 μl. of diluted serum, an appropriate amount of substrate solution depending on the final substrate concentration desired, and reaction buffer sufficient to give a total reaction volume of 100 μl. All reaction tubes were incubated for 60 minutes at 37° C. Reactions were terminated by the addition of 1.0 ml. of 0.1 N hydrochloric acid. The reaction mixture was then extracted with 1.0 ml. ethyl acetate, by rotary agitation for 4-5 seconds. The phases were separted by centrifugation at 1000×G for ten minutes. A 0.5 ml. sample of the ethyl acetate (upper) layer was removed and tranferred to a scintillation vial containing 10 ml. scintillation fluid. (Riafluor, Trademark, New England Nuclear Corp., Boston, Mass.)
A control determination of background radioactivity was made using 50 μl. of reaction buffer instead of diluted serum in the reaction mixture. The purpose of this control was to determine the number of total counts attributable to background radiation, non-specific release of hippuric acid and the presence of unreacted substrate in the ethyl acetate phase. Less than 7% of the ^3 H-HipGly Gly entered the organic phase. Total radioactivity was determined by counting an amount of substrate equal to that used in the reaction mixture directly in the scintillation counter.
Reaction velocity, in terms of nanomoles of product formed per minute per ml of serum was calculated according to the following formula: [formula] In this formula, "nmoles" means nanomoles, "min" means minutes, "ml" means milliliters and "cpm" means radioactivity counts per minute. The factor of 2 is a correction for the aliquot size. In the case where a significant fraction of substrate has been hydrolyzed, and the substrate in one which is more soluble in the organic phase, as for example, ^125 I-HPPGlyGlyGly, a modified formula is used to take account of the decreasing amount of substrate as the reaction progresses: [formula]
Reciprocal values of initial substrate concentration and reaction velocity were calculated and graphed according to the method of Lineweaver and Burke, as shown in FIG. 1. A straight line was obtained, which intercepted the ordinate at a value equal to the reciprocal of the maximum velocity of the enzyme reaction and intercepted the abcissa at a value equal to the negative reciprocal of the apparent Michaelis constant. […] It can be seen that reaction velocities as low as 12 nanomoles of substrate hydrolyzed per minute per ml. of serum can readily be measured.

Data set [2] deals with angiotensin converting enzyme (ACE). Particulars: similar reaction conditions, enzyme from hog lung (Dorer et al.); cited from earlier work.
For data set [3] the test system is unchanged. Briefly: ACE-catalyzed hydrolysis: Km, pH, chloride and buffer dependence. It is filed as biochemical. Particulars: by substrate. The text has this: (§1) Reaction conditions optimal for carrying out an ACE catalyzed hydrolysis of a substrate of the present invention are the same as have been previously described for substrates known in the prior art. Detailed studies of optimal conditions using HipGlyGly as substrate have been reported by Dorer, et al. The pH optimum is approximately 8.0 although greater than 50% maximal activity is obtained in the pH range 7.0-9.0, in the presence of 1 M NaCl. […] The relationship between the chloride requirement and the ionic strength requirement has not been fully characterized. […] Phosphate is inhibitory. Hepes, bicine and barbital buffers are suitable for use but Hepes is preferred because it provides maximum activity. Preferred conditions of buffer composition, ionic strength, pH and temperature are described in Example 1. […] The pH range for usable enzyme activity is from pH 6.5 to pH 8.7, with a broad plateau of maximal activity ranging from pH 7.2 to pH 8.5. Optimal substrate concentration depends upon the apparent Km, for the substrate compared with the Km's of possible competing substances in the sample. A substrate having a relatively low Km, such as ^3 H-benzoylProPheArg (Km 2×10^-4 M) could be suitably used at a concentration less than its Km. A substrate having a higher Km might better be used at a concentration greater than its Km. […] Because its Km is the lowest of any of the substrates of the present invention, ^3 H-benzoylProPheArg is the most preferred substrate for assays where ACE activity is low and maximum sensitivity is desired. In addition to being less sensitive to competitive inhibition, assays carried out with this substrate are potentially able to measure lower levels of ACE than the other substrates disclosed herein. Additionally, its partition behavior in an aprotic organic solvent is extremely favorable: only about 3% entered ethyl acetate in a preliminary extraction experiment. The remnant product Benzoylproline was about 90% extracted.

Data set [4] can be described thus: Extraction (partition) into ethyl acetate. Type of data set: physicochemical.
Excerpt: as §1
The remnant reaction product may be extracted from the reaction mixture by an aprotic organic solvent which affords a reasonably quantitative separation of product from substrate. The use of solvents which may interfere with the counting process is to be avoided. Ethyl acetate is preferred. Approximately 91% of ^3 H-Hippuric acid is extracted into ethyl acetate. Extraction may be carried out by any suitable means familiar to those skilled in the art, such as shaking, agitating, mixing and the like. Separation of the phases is conveniently accomplished by centrifugation. Centrifugation at 1000×G for ten minutes is preferred, either at room temperature or in a refrigerated centrifuge. In some cases, an emulsion will form which can be separated by a longer centrifugation step.
A control determination of background radioactivity was made using 50 μl. of reaction buffer instead of diluted serum in the reaction mixture. The purpose of this control was to determine the number of total counts attributable to background radiation, non-specific release of hippuric acid and the presence of unreacted substrate in the ethyl acetate phase. Less than 7% of the ^3 H-HipGly Gly entered the organic phase. Total radioactivity was determined by counting an amount of substrate equal to that used in the reaction mixture directly in the scintillation counter. […]

In data set [5] the test system is angiotensin converting enzyme (ACE). As to conditions: HipGlyGly as substrate, cited from earlier work.
For data set [6], the target named is T2, angiotensin converting enzyme (ACE) (Cavia porcellus, UniProt H0UWL7).
T2 construct: native circulating soluble form, expected to be shed somatic ACE
T2 sequence (H0UWL7 33-1234): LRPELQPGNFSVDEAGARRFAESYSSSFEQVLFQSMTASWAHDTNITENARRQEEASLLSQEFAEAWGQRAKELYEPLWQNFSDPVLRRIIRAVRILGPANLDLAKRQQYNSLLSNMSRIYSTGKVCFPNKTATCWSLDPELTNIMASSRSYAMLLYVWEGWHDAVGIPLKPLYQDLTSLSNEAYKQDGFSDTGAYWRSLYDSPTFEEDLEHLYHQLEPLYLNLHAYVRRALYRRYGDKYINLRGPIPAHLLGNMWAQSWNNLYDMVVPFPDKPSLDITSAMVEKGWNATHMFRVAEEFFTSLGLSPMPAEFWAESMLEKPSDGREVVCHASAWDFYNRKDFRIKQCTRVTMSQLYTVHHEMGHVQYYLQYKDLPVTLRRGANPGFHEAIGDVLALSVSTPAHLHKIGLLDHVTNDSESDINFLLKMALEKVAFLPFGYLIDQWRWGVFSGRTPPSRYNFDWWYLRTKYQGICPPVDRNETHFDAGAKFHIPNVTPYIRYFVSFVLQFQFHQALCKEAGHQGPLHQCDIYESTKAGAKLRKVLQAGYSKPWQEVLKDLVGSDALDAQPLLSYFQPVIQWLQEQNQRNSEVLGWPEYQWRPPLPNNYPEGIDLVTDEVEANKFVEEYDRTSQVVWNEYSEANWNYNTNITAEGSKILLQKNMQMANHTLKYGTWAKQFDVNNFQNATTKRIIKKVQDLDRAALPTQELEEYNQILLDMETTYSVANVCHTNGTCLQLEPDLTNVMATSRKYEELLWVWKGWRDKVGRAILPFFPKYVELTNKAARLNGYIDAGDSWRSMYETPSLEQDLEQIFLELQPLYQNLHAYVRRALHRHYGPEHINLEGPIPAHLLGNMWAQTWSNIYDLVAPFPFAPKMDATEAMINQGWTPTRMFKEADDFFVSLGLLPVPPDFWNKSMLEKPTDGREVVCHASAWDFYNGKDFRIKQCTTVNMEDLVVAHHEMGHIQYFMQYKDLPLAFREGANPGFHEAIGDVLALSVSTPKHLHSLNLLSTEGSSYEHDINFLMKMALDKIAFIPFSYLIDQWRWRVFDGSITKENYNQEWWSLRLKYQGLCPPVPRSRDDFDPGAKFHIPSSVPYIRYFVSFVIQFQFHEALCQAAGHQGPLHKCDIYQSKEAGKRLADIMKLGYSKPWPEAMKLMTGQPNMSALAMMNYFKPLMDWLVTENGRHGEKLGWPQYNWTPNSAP
In words: Hydrolysis of ^125I-HPPGlyGlyGly by guinea pig serum ACE. It is filed as biochemical. The protocol: The standard assay conditions as described in Example 1 were employed except that the source of ACE was guinea pig serum and the amount of substrate added was that amount needed to give 101,436 total counts per minute. In terms of mass, this amount is believed to be well below the Km for the substrate. Samples were incubated for 15 minutes, 30 minutes and 60 minutes, and an unreacted sample (0 time) was used to determine the amount of substrate extracted into ethyl acetate.

Consider two compounds from patent publication US4251628A, “Substrates for angiotensin converting enzyme” (priority 1978, dated 1981).

T1 sequence (P12821 30-1232 limits assumed): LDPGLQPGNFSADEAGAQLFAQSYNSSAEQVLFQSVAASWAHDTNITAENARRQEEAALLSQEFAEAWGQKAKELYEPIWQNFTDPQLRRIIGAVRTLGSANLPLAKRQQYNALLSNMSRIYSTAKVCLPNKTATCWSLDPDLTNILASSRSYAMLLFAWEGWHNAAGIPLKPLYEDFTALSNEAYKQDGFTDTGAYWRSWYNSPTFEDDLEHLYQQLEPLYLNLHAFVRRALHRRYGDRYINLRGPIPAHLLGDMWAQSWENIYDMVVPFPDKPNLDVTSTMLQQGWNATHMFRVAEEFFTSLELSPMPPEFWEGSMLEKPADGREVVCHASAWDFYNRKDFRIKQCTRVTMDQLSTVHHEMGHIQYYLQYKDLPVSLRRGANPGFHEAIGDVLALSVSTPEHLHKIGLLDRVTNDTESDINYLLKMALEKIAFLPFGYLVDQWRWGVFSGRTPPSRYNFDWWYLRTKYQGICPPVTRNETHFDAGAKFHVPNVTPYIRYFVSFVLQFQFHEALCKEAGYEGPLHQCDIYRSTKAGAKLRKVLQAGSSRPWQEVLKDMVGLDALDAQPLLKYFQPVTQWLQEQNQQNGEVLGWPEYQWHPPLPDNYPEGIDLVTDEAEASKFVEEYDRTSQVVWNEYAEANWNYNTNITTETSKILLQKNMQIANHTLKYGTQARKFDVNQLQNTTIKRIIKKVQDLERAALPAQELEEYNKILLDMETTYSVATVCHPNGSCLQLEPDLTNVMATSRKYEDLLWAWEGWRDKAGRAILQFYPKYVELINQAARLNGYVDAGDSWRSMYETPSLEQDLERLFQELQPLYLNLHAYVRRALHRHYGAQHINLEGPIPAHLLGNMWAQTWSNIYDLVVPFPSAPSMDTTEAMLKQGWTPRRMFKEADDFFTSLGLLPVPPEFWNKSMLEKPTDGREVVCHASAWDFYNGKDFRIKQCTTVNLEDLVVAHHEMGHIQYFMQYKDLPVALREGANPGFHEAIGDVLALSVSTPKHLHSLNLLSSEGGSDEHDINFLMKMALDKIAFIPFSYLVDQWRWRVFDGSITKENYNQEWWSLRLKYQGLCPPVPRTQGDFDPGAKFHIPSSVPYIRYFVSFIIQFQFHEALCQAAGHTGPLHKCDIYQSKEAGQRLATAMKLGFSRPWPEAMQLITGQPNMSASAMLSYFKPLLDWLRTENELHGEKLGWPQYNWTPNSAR

Consider `[3H]c1ccc(C(=O)NCC(=O)NCC(=O)NCC(=O)O)cc1` [^3 H-HipGlyGly, ^3 H-hippurylglycylglycine], for which the “Sensitivity to serum carboxypeptidase” value in the data set with serum carboxypeptidase was “insensitive to serum carboxypeptidase”. For the same compound, the “Reciprocal of reaction velocity” value in data set [1] ([S] 1.82 mM) came out at 0.0504; in data set [1] ([S] 3.64 mM) it was 0.0289; in data set [1] ([S] 5.45 mM) it was 0.0214; in data set [1] ([S] 7.27 mM) it was 0.0191; in data set [1] ([S] 9.09 mM) it was 0.0183; in data set [1] ([S] .91 mM), 0.0810. Also, the Velocity in data set [1] ([S] 1.82 mM) is listed as 19.83 nanomoles of product formed pe; in data set [1] ([S] 3.64 mM), 34.65 nanomoles of product formed pe; in data set [1] ([S] 5.45 mM) it was 46.76 nanomoles of product formed pe; in data set [1] ([S] 7.27 mM), 52.48 nanomoles of product formed pe; in data set [1] ([S] 9.09 mM) it was 54.63 nanomoles of product formed pe; in data set [1] ([S] .91 mM), 12.35 nanomoles of product formed pe. Besides, the “Assay sensitivity (lowest measurable enzyme activity)” value in data set [1] (assay condition of Example 1) is on record as 8 units of enzyme per ml. The Michaelis-Menten constant (Km) in data set [2] was 2600 µM. The “Chloride / ionic strength requirement of the ACE-catalyzed hydrolysis” value in data set [3] is “requires chloride ions”. The “Fraction extracted into ethyl acetate” value in data set [4] was “Less than 7%”. For the same compound, in data set [5] (1 M NaCl), the “pH range with greater than 50% maximal activity” value is reported as 7.0-9.0. In addition, the “pH optimum of ACE-catalyzed hydrolysis” value in data set [5] (Dorer et al.) is reported as “approximately 8.0”.

`O=C(O)CNC(=O)CNC(=O)CNC(=O)CCc1ccc(O)c([125I])c1` [^125 I-HPPGlyGlyGly, ^125 I-p-hydroxyphenylpropionylglycylglycylglycine]: the “Sensitivity to serum carboxypeptidase” value with serum carboxypeptidase is reported as “insensitive to serum carboxypeptidase”. In addition, the “Net cpm in product” value is on record as 0 cpm in data set [6] (incubation 0 min), 17,808 cpm in data set [6] (incubation 15 min), 43,804 cpm in data set [6] (incubation 30 min) and 58,044 cpm in data set [6] (incubation 60 min). For the same compound, the “cpm in Ethyl Acetate phase” value was 27,205 cpm in data set [6] (incubation 0 min), 40,000 cpm in data set [6] (incubation 15 min), 59,182 cpm in data set [6] (incubation 30 min) and 69,577 cpm in data set [6] (incubation 60 min). Also, the “Chloride / ionic strength requirement of the ACE-catalyzed hydrolysis” value in data set [3] was “requires chloride ions”. Besides, the “Fraction extracted into ethyl acetate” value in data set [4] is 27.2%.

Broadly, the Km is the concentration of substrate that gives half-maximal velocity.
